Consider 3 compounds from patent publication US5449750A, “Prolyl endopeptidase inhibitors SNA-115 and SNA-115T, and process for the production and productive strain thereof” (Snow Brand Milk Products Co., Ltd., priority 1991, dated 1995).

Data set [1] deals with prolyl endopeptidase derived from Flavobacterium (Elizabethkingia meningoseptica, UniProt P27028). In words: Prolyl endopeptidase inhibitory activity (Z-Gly-Pro-pNA substrate, p-nitroaniline at 410 nm). It counts as biochemical. The note with it: for IC50: 50% inhibitory concentration (IC50), 0.2 mM Z-Gly-Pro-pNA as substrate, sample in methanol, 30° C., pH 7.0; for Ki: inhibitor constant Ki, various concentrations of substrate and inhibitor; for Ki / inhibitory pattern: Dixon plot.

Another data set can be described thus: Solubility in solvents. Particulars: organic solvents and water, qualitative.
Data set [2] in a line: Acute toxicity (intravenous injection).
In data set [3] the test system is Human epidermoid carcinoma (oral) KB cells. Briefly: Cytotoxicity, cell proliferation (MTT). It counts as cell-based. The note with it: 72 hrs culture. As to the method:
(§1) Human epidermoid carcinoma (oral) KB cells and mouse leukemia L1210 cells each were placed in a 96 wells microplate (2,000 cells/100 μl/well). The former cells were cultured in DMEM medium and the latter cells were cultured in RPMI 1640 medium, each containing 5% FCS. They were cultured in the presence of 5% CO2 at 37° C. for 24 hrs. Five μl each of a serial concentration of SNA-115 in methanol were added to the wells and cultured for 72 hrs. and cultured further 4 hrs. after the addition of 10 μl of 2.5 mg/ml MTT solution to produce formazan. The cultured mixture was centrifuged at 2,000 rpm for 2 min., the supernatant was removed, 100 μl of DMSO was added to the residue and the absorption at 540 nm was determined by an immunoreader. The cell proliferation inhibitory activity of samples was obtained from comparison of their ratios to that of control group.

The test system of data set [4] is mouse leukemia L1210 cells. In words: Cytotoxicity, cell proliferation (MTT). It counts as cell-based. The note with it: 72 hrs culture. As to the method: as §1
The subject of another data set is Alternaria mali IFO 8984. Briefly: Antimicrobial activity, paper disc method. It counts as cell-based. Particulars: 40 μg per disc. As to the method:
(§2) The antimicrobial activity of SNA-115 was determined in 24 bacteria, fungi, and yeasts by paper disc method. SNA-115 was placed on paper discs at an amount of 40 μg each and the disc was placed on the test plates. The test plates were cultured under optimal conditions of the test microorganisms.

Data set [5] deals with Candida albicans IFO 1594. In words: Antimicrobial activity, paper disc method. It counts as cell-based. The note with it: 40 μg per disc. As to the method: as §2
The subject of a further data set is Chlorella vulgaris. Briefly: Antimicrobial activity, paper disc method. Particulars: 40 μg per disc. It counts as cell-based. As to the method:
as §2

Data set [6] has as its system Colletotrichum lagenarium IFO 7513. Briefly: Antimicrobial activity, paper disc method. It counts as cell-based. The note with it: 40 μg per disc. On the procedure: as §2
The test system of a further data set is Escherichia coli AB 1157. Briefly: Antimicrobial activity, paper disc method. It counts as cell-based. The note with it: 40 μg per disc. On the procedure: as §2
The test system of another data set is Escherichia coli BE 1186. In words: Antimicrobial activity, paper disc method. Particulars: 40 μg per disc. It counts as cell-based. On the procedure:
as §2

Data set [7] has as its system Escherichia coli multi resistant. In words: Antimicrobial activity, paper disc method. Particulars: 40 μg per disc. It counts as cell-based. As to the method: as §2
The subject of data set [8] is Fusarium oxysporum IFO 9761. In words: Antimicrobial activity, paper disc method. It counts as cell-based. The note with it: 40 μg per disc. As to the method: as §2
In data set [9] the test system is Micrococcus luteus IFO 12708. In words: Antimicrobial activity, paper disc method. It counts as cell-based. Particulars: 40 μg per disc. As to the method:
as §2

The subject of data set [10] is Pseudomonas aeruginosa IFO 13130. Briefly: Antimicrobial activity, paper disc method. It counts as cell-based. The note with it: 40 μg per disc. On the procedure:
as §2

The test system of data set [11] is Salmonella typhimurium TV 119. In words: Antimicrobial activity, paper disc method. It counts as cell-based. Particulars: 40 μg per disc. As to the method: as §2
Data set [12] relates to Schizosaccharomyces Pombe IFO 0638. In words: Antimicrobial activity, paper disc method. It counts as cell-based. Particulars: 40 μg per disc. As to the method:
as §2

The subject of data set [13] is Staphylococcus aureus IFO 12732. Briefly: Antimicrobial activity, paper disc method. The note with it: 40 μg per disc. It counts as cell-based. On the procedure: as §2
In data set [14] the test system is Staphylococcus aureus multi resistant. Briefly: Antimicrobial activity, paper disc method. It counts as cell-based. The note with it: 40 μg per disc. On the procedure:
as §2

Data set [15] relates to Trichophyton rubrum IFO 6203. Briefly: Antimicrobial activity, paper disc method. It counts as cell-based. Particulars: 40 μg per disc. As to the method:
as §2

Data set [16] has as its system Salmonella typhimurium SL 1102. Briefly: Antimicrobial activity, paper disc method. It counts as cell-based. Particulars: 40 μg per disc. As to the method:
as §2
The antimicrobial activity of SNA-115T compound was determined in 9 bacteria and fungi by paper disc method in an agar plate. SNA-115T was placed on paper discs at an amount of 40 μg each and the disc was placed on the test plates. The test plates were cultured under optimal conditions of the rest microorganisms. The inhibition zones of SNA-115 were also shown for the comparison.

Data set [17] concerns Pseudomonas aeruginosa N-10 (L-form). Briefly: Antimicrobial activity, paper disc method. It counts as cell-based. Particulars: 40 μg per disc.
For a further data set, the system named is Bacillus subtilis rec^+. Briefly: Antimicrobial activity, paper disc method. It counts as cell-based. The note with it: 40 μg per disc.
A further data set has as its system Bacillus subtilis rec^-. Briefly: Antimicrobial activity, paper disc method. It counts as cell-based. Particulars: 40 μg per disc.
Data set [18] concerns Mycobacterium phlei IFO 3158. Briefly: Antimicrobial activity, paper disc method. It counts as cell-based. The note with it: 40 μg per disc.
Data set [19] relates to Xanthomonas oryzae IFO 3312. It counts as cell-based.
Data set [20] deals with Xanthomonas citri IFO 3781. Briefly: Antimicrobial activity, paper disc method. It counts as cell-based. Particulars: 40 μg per disc.
Data set [21] concerns Botrytis cinerea IFO 5365. Briefly: Antimicrobial activity, paper disc method. It counts as cell-based. The note with it: 40 μg per disc.
Data set [22] has as its system Pyricularia oryzae IFO 5994. It counts as cell-based.
Setting [23] is: ( ) indicates partial inhibition.

SMILES strings stand for the structures. “And” between values parts separate entries of the source, which are not always exact repeats. Identical values can stand only once. Like-named read-outs stand apart in the source and are kept apart here. Where a SMILES comes first, the peptide text is derived from it. Bridges are numbered along the chain shown (N, C = ends). Roman numbers before positions name the chains, in order.

Sequence of prolyl endopeptidase derived from Flavobacterium (P27028 21-705): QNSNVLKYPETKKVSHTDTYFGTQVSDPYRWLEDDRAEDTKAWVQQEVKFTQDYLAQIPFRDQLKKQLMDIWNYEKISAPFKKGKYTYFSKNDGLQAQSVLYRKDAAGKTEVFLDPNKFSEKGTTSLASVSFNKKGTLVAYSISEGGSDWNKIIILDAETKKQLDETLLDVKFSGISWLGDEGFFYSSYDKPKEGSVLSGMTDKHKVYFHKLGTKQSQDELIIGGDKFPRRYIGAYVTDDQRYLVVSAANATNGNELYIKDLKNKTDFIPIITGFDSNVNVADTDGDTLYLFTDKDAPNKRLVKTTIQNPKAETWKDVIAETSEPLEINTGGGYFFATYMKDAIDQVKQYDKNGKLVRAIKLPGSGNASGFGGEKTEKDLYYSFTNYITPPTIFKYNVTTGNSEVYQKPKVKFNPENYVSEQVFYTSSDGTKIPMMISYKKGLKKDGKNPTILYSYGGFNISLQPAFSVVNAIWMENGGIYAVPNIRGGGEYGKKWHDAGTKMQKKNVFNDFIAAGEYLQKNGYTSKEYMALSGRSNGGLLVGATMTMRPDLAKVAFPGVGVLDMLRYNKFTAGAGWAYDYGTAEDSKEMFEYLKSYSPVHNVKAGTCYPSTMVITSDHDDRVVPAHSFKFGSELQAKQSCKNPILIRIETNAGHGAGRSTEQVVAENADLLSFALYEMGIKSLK

A word on the IC50: it is the concentration that gives 50% inhibition. The low end stands for higher potency, the high end for lower potency. As usually defined, the Ki is the equilibrium dissociation constant of an inhibitor or competing ligand from its target. High values mean weaker binding, low ones tighter binding. Turning to `CC[C@H](C)[C@H](NC(=O)[C@H](Cc1ccccc1)NC(=O)[C@@H](NC(=O)[C@H](Cc1cnc[nH]1)NC(=O)CNC(=O)CNC(=O)[C@H](Cc1ccccc1)NC(=O)[C@H](CC(C)C)NC(=O)[C@@H]1CC(=O)NCC(=O)N[C@@H](Cc2ccc(O)cc2)C(=O)N2CCC[C@H]2C(=O)N[C@@H](Cc2c[nH]c3ccccc23)C(=O)N[C@@H](Cc2c[nH]c3ccccc23)C(=O)N[C@@H](CC(=O)O)C(=O)N[C@@H](Cc2ccc(O)cc2)C(=O)N[C@@H](CCCNC(=N)N)C(=O)N1)[C@@H](C)O)C(=O)N[C@@H](CO)C(=O)N1CCC[C@H]1C(=O)O` [SNA-115] (GYPWWDYRDLFGGHTFISP-OH; lactam N-9), in [1], the IC50 is 1130 nM and 1100 nM; the Ki is 697 nM and 700 nM. Moreover, the Solubility result in “Solubility in solvents” was “Soluble in methanol, dimethylsulfoxide, butanol and ethanol, and insoluble in acetonitrile, chloroform, acetone and water”. In [2], this compound yielded an acute toxicity of at least 10 mg/kg.

On to `CC[C@H](C)[C@H](NC(=O)[C@H](Cc1ccccc1)NC(=O)[C@@H](NC(=O)[C@H](Cc1c[nH]cn1)NC(=O)CNC(=O)CNC(=O)[C@H](Cc1ccccc1)NC(=O)[C@H](CC(C)C)NC(=O)[C@@H]1CC(=O)NCC(=O)N[C@@H](Cc2ccc(O)cc2)C(=O)N2CCC[C@H]2C(=O)N[C@@H](Cc2c[nH]c3ccccc23)C(=O)N[C@@H](Cc2c[nH]c3ccccc23)C(=O)N[C@@H](CC(=O)O)C(=O)N[C@@H](Cc2ccc(O)cc2)C(=O)N[C@@H](CCCNC(=N)N)C(=O)N1)[C@@H](C)O)C(=O)N[C@@H](CO)C(=O)N1CCC[C@H]1C(=O)O` [SNA-115] (GYPWWDYRDLFGGHTFISP-OH; lactam N-9), for which the inhibitory pattern entry in [1] was “competitive inhibition”. Moreover, the “IC50 against cell proliferation” value in data set [3] and in data set [4] was > 1,000 μg/ml each time. The Inhibition zone (in the data set on Alternaria mali IFO 8984; in data set [5]; in the data set with Chlorella vulgaris; in [6]; in the data set with Escherichia coli AB 1157; in the data set on Escherichia coli BE 1186) was 0 mm in each case. In addition, the Inhibition zone in data set [7], in [8], in data set [9], in data set [10], in data set [11] and in [12] was 0 mm in each case. Besides, the Inhibition zone was 0 mm in data set [13]; 0 mm in [14]; 0 mm in [15]; 0 mm in data set [16]; 10.6 mm and 16.8 mm in [17]; 0 mm with Bacillus subtilis rec^+. The Inhibition zone with Bacillus subtilis rec^- was 0 mm; in data set [18], 14.5 mm and 13.8 mm; in data set [19], 11.5 mm; in data set [20], 0 mm; in [21], 0 mm; in data set [22], 0 mm. The “Inhibition zone, partial inhibition (value in parentheses)” value (in [17] (setting [23]); in the data set on Bacillus subtilis rec^- (setting [23])) was 15.2 mm throughout. The “Inhibition zone (class symbol)” value in data set [19] is reported as “+ (key: + indicates inhibitory zone diameter of 10 mm or less)”.

For the compound `CC[C@H](C)[C@H](NC(=O)[C@H](Cc1ccccc1)NC(=O)[C@@H](NC(=O)[C@H](Cc1c[nH]cn1)NC(=O)CNC(=O)CNC(=O)[C@H](Cc1ccccc1)NC(=O)[C@H](CC(C)C)NC(=O)[C@@H](N)CC(=O)NCC(=O)N[C@@H](Cc1ccc(O)cc1)C(=O)N1CCC[C@H]1C(=O)N[C@@H](Cc1c[nH]c2ccccc12)C(=O)N[C@@H](Cc1c[nH]c2ccccc12)C(=O)N[C@@H](CC(=O)O)C(=O)N[C@@H](Cc1ccc(O)cc1)C(=O)N[C@@H](CCCNC(=N)N)C(=O)O)[C@@H](C)O)C(=O)N[C@@H](CO)C(=O)N1CCC[C@H]1C(=O)O` [SNA-115T] (I: H-DLFGGHTFISP-OH / II: GYPWWDYR-OH; amide I:1-II:N), the IC50 in data set [1] is 1300 nM. In addition, the inhibitory pattern entry in [1] is listed as “competitive inhibition”. In data set [1], the inhibition constant (Ki) was 475 nM and 480 nM. Besides, the Inhibition zone in [16] was 0 mm; in data set [17], 0 mm; with Bacillus subtilis rec^+ it was 0 mm; with Bacillus subtilis rec^- it was 0 mm; in [18], 0 mm; in [19] (paper disc, 40 μg per disc) it was 0 mm. Also, the Inhibition zone in [20] was 0 mm; in [21], 0 mm; in data set [22] (paper disc, 40 μg per disc), 0 mm. The acute toxicity in data set [2] is recorded as at least 10 mg/kg.
